This assay deals with antibiotic/microorganism combinations. Nature of the assay: TTD tests per antibiotic, Low Volume/Low Ratio vs PlusAer control. In kind it is cell-based. The following applies: drug amount at peak serum level in 7 ml of blood. The method, then:
The performance of 1:1 blood-to-broth ratio in the presence of an inhibitory antibiotic was tested in comparison to a standard diluted blood-to-broth ratio at least 1:3. Two different sample preparations for the 1:1 blood-to-broth ratio are described below.
FIG. 3A illustrates a low volume/low ratio preparation that is prepared in a 30 ml vial with the resin and lytic media disposed in separate chambers. The preparation contained resin and 8 ml total lytic media. The sensor in the container was a solid-state fluorescent 02 sensor. The fluorescent signal changes were used to determine microorganism growth. […] The low volume/low ratio preparation provided a 1:1 blood-to-broth ratio. The total 8 ml lytic media were separated into two parts. One part of the lytic media was in the 30 ml bottle with resin and the other part of the lytic media was in a separate device and the media therein was added under sterile conditions into the 30 ml bottle at the time the bottle was inoculated with both the blood sample and the microorganisms.
FIG. 3B illustrates the second sample preparation identified as “PlusLytic”. The PlusLytic preparation uses the BACTEC Plus Aerobic product that is commercially available, which is 30 ml of media in the 80 ml bottle. At the time of testing, 8 ml of blood, a predetermined amount of antibiotic, 10-100 CFU's of microorganisms, and an additional 20 mg of saponin were combined with the 30 ml of media in the bottle. […] The control test sample preparation is depicted in FIG. 3C and identified as “PlusAer”. The PlusAer preparation uses the commercially available BACTEC Plus Aerobic product without any additional media components. At the time of testing, 8 ml of blood, a predetermined amount of antibiotic and 10-100 CFU's of microorganisms are combined with the contents of the BACTEC Plus Aerobic product.
Each sample preparation was tested with 64 antibiotic/microorganism combinations. The antibiotics tested were Gentamicin, Amoxicillin-Clavulanate, Aztreonam, Ceftriaxone, Cefepime, Imipenem, Meropenem, Piperacillin-Tazobactam, Vancomycin, Tigecycline, Ciprofloxacin, Tetracycline, Fluconazole. The drug quantity inoculated into each test bottle was equivalent to the drug amount at its peak serum level in 7 ml of blood. These antibiotics were combined with certain microorganisms that they generally treat. For example, Amoxicillin-Clavulanate was combined with S. aureus, E. coli, and E. faecalis. Each sample was tested for both TTD and recovery of the microorganism in the presence of drugs.
The media was inoculated with blood sample, antibiotics and saponin a few minutes apart from each other.
`CO/N=C(\C(=O)N[C@@H]1C(=O)N2C(C(=O)O)=C(CSc3nc(=O)c(=O)[nH]n3C)CS[C@H]12)c1csc(N)n1` [Ceftriaxone]: the “TTD of the Low Volume/Low Ratio preparation as compared to the PlusAer preparation” value is listed as “faster TTD”.

As to `C[C@@H](O)[C@H]1C(=O)N2C(C(=O)O)=C(S[C@@H]3CN[C@H](C(=O)N(C)C)C3)[C@H](C)[C@H]12` [Meropenem], the “TTD of the Low Volume/Low Ratio preparation as compared to the PlusAer preparation” value is recorded as “faster TTD”.

For the molecule `CN[C@H](CC(C)C)C(=O)N[C@H]1C(=O)N[C@@H](CC(N)=O)C(=O)N[C@H]2C(=O)N[C@H]3C(=O)N[C@H](C(=O)N[C@H](C(=O)O)c4cc(O)cc(O)c4-c4cc3ccc4O)[C@H](O)c3ccc(c(Cl)c3)Oc3cc2cc(c3O[C@@H]2O[C@H](CO)[C@@H](O)[C@H](O)[C@H]2O[C@H]2C[C@](C)(N)[C@H](O)[C@H](C)O2)Oc2ccc(cc2Cl)[C@H]1O` [Vancomycin], the “TTD of the Low Volume/Low Ratio preparation as compared to the PlusAer preparation” value was “faster TTD”.

Turning to “Amoxicillin-Clavulanate [Amoxicillin/clavulanic acid]”, the “TTD of the Low Volume/Low Ratio preparation as compared to the PlusAer preparation” value is listed as “faster TTD”.

With Gentamicin, the “TTD of the Low Volume/Low Ratio preparation as compared to the PlusAer preparation” value is “slower TTD”.

Source of the values: US11845919B2, “Blood culture system with low media volume” (BECTON, DICKINSON AND COMPANY, priority 2015, dated 2023).
